Legend:
[1] = tested on: whole blood coagulation; assay: Thromboelastograph whole blood coagulation time (r+k value) after 14-day oral administration to guinea pigs; settings: guinea pig, oral once a day for 14 days, pitavastatin calcium 3 mg/kg and/or aspirin 100 mg/kg; for Whole blood coagulation time (r + k value): blood after 18 hours of fasting, average ± standard deviation; for Whole blood coagulation time (r + k value), relative value: relative to control group (100)
[2] = tested on: clot formation; assay: Thromboelastograph maximal amplitude (MA) of clot formation after 14-day oral administration to guinea pigs; type: in vivo, Hartley male guinea pigs; settings: guinea pig, oral once a day for 14 days, pitavastatin calcium 3 mg/kg and/or aspirin 100 mg/kg; for Maximal amplitude (MA) of clot formation: blood after 18 hours of fasting, average ± standard deviation; for Maximal amplitude (MA) of clot formation, relative value: relative to control group (100)
Description: The animals used in the test were 6 week old Hartley male guinea pigs (Japan SLC, Inc.), and these animals were kept throughout the test period in a breeding chamber with controlled day and night cycle (light period under illumination of room light, 7 am to 7 pm) at a temperature of 23±3° C. and a humidity of 55±15%.
24 guinea pigs were divided into 4 groups (5 or 6 animals in each group), namely, control group (with no drug administration), the group solely administered with pitavastatin calcium (3 mg/kg), the group solely administered with aspirin (100 mg/kg), and the group administered with a combination of pitavastatin calcium (3 mg/kg) and aspirin (100 mg/kg).

SMILES | Whole blood coagulation time (r + k value) [1] | Whole blood coagulation time (r + k value), relative value [1] | Maximal amplitude (MA) of clot formation [2] | Maximal amplitude (MA) of clot formation, relative value [2]
CC(=O)Oc1ccccc1C(=O)O [Aspirin, acetyl salitylic acid] | 12.7 ± 1.6 min | 109% | 71.0 ± 3.1 mm | 98%
O=C(O)C[C@H](O)C[C@H](O)/C=C/c1c(C2CC2)nc2ccccc2c1-c1ccc(F)cc1 [Pitavastatin, (3R,5S,6E)-7-[2-cyclopropyl-4-(4-fluorophenyl)-3-quinolyl]-3,5-dihydroxy-6-heptenoic acid] | 12.8 ± 2.4 min | 110% | 71.8 ± 5.0 mm | 99%
